Laboratory results as given in patent publication US6566580B1, “Neurological disease model” (priority 1996, dated 2003).
Where “and” joins values, the source holds several entries; their conditions need not be identical. Identical values can stand only once.

Columns and labels:
[1] = test system: mice (mGluR7 -/-, +/-, +/+); assay: Pentylenetetrazol (PTZ)-induced seizures in mGluR7 knockout, heterozygote and wild-type mice; assay type: in vivo; details: PTZ 40 mg/kg i.p.
Protocol: Intraperitoneal (i.p.) injection of a normally subconvulsive dose of PTZ (40 mg/kg) induced seizures in 9 out of 9 homozygous mGluR7 knockout mice (age 9 months) as shown in the Table below.
This sensitivity to a subconvulsive dose of PTZ is not yet evident at age 6 weeks but clearly evident at age 10 weeks in mGluR7 homozygous but not in heterozygous littermates as shown in the table below.

mice (mGluR7 -/-, +/-) = assay: EEG recording with surface electrodes before and after PTZ injection; assay type: in vivo; details: PTZ 40 mg/kg
Protocol: In addition, two mGluR7−/− and two mGluR7+/− mice were equipped with surface electrodes to record EEGs before and after injection of 40 mg/kg PTZ.

[2] = test system: synaptic transmission in the Schaffer collateral-commissural pathway; assay: L-AP4 depression of synaptic transmission, field EPSP recordings in hippocampal CA1 slices; assay type: cell-based, mice; details: L-AP4 1 mM
Protocol: To investigate the possible functions of mGlu7 electrophysiological experiments are performed in the CA1 region of the hippocampus, a region rich in mGlu7. […] L-AP4 (1 mM) is therefore applied to wild-type and mGlu7^−/− mice. […] However, all three patterns are seen in both wild-type and mutant mice. On average there is no significance difference in the actions of L-AP4 between groups; the peak L-AP4 induced depressions for wild-type and mutant mice are 40±10% (n=15) and 33±10% (n=14), respectively (P>0.05). Furthermore, no statistically significant differences are seen in intrinsic or synaptic properties between wild-type and mutant mice. Also, paired-pulse facilitation is similar between both groups. Thus, the facilitation ratio obtained, using an interpulse interval of 50 ms, is 1.49±0.03 and 1.45±0.04 for wild-type (n=9) and mutant (n=9) mice, respectively (P>0.05).
Since certain members of the mGlu family have been implicated in the generation of LTP in area CA1, the ability of wild-type and mutant mice to support this form of synaptic plasticity is compared as follows. […]
There are no apparent differences in low frequency synaptic transmission between the two groups of mice. […] Statistical significance is determined using a repeated measures ANOVA test and unpaired Students t-tests. […]

[3] = test system: synaptic transmission in the Schaffer collateral-commissural pathway; details: 1 mM L-AP4, Schaffer collateral-commissural pathway, literature; cited from earlier work
mGlu7 = mGlu7 (Rattus norvegicus, UniProt P35400); details: high concentrations of L-AP4, e.g. 1 mM, recombinant systems; cited from earlier work
Sequence of mGlu7 (P35400 35-915): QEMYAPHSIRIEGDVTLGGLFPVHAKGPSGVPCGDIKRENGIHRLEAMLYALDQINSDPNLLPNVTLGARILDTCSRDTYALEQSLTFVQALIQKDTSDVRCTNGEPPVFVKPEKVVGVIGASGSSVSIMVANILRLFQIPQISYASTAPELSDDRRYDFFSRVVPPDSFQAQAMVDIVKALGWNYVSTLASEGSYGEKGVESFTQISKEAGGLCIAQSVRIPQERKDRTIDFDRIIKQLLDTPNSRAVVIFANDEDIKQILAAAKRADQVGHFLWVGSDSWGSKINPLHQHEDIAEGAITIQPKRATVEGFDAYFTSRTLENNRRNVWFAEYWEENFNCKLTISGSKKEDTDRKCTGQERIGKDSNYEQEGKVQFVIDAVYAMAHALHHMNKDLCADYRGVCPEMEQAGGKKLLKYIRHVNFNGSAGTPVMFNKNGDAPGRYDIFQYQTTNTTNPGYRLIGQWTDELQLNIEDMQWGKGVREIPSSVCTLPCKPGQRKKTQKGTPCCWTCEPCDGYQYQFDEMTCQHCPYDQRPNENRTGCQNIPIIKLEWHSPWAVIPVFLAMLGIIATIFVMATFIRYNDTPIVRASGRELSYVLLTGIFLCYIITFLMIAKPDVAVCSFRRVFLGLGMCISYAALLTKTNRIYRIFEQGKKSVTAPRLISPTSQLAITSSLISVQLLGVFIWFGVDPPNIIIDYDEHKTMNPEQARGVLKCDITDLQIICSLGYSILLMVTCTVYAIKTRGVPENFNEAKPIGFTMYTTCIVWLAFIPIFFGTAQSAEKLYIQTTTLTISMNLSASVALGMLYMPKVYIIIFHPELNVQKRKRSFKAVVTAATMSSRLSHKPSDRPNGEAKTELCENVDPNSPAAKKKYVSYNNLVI

Row | SMILES | mice with induced seizures ([1]; homozygous mGluR7 knockout mice, age 9 months) | Clonic activity ([1]; mGluR7 +/- heterozygote mice, per animal) | mice with clonic seizures ([1]; mGluR7+/- mice) | Clonic activity ([1]; mGluR7 -/- mice, age 6 weeks, per animal) | Clonic activity ([1]; mGluR7 -/- mice, age 10 weeks, per animal) | Clonic activity ([1]; mGluR7 -/- mice, per animal) | Exitus ([1]; mGluR7 -/- mice, per animal) | Tonic activity ([1]; mGluR7 -/- mice, per animal) | mice with induced seizures ([1]; wild type mice (mGluR7+/+)) | seizures following injection ([1]; wild type non-transgenic mice tested in parallel with the 6 and 10 week experiments) | EEG after PTZ injection (mice (mGluR7 -/-, +/-); homozygous mGluR7 knockout mice) | EEG after PTZ injection (mice (mGluR7 -/-, +/-); mGluR7+/- mice) | peak L-AP4 induced depression ([2]; mutant (mGlu7 -/-) mice, n=14) [%] | peak L-AP4 induced depression ([2]; wild-type mice, n=15) [%] | effect on synaptic transmission [3] | activation of mGlu7 (mGlu7)
1 | C1CCc2nnnn2CC1 [PTZ, Pentylenetetrazol] | 9 out of 9 | 3′ | 1 out of 9 | 6′ | 2′ (2×) and 4′ (4×) | 2′ and 15′ | 4′ (2×) and 12′ and 11′ and 6′ | 3′ (2×) and 12′ and 2′ and 4′ and 6′ | None of 9 | no seizures | typical signals reminiscent of seizure activity | no such activity developed |  |  |  | 
2 | N[C@@H](CCP(=O)(O)O)C(=O)O [L-AP4, (S)-2-amino-4-phosphonobutanoate] |  |  |  |  |  |  |  |  |  |  |  |  | 33±10 | 40±10 | can depress synaptic transmission | can activate mGlu7
